Source: publication PMC6002460, “Pharmacological evaluation of new constituents of “Spice”: synthetic cannabinoids based on indole, indazole, benzimidazole and carbazole scaffolds” (Forensic Toxicology, 2018)
Read-outs that look alike come from different tables or passages of the source.

Tests used:
[1] = target: T1, human CB1 receptor (Homo sapiens, UniProt P21554); parameters: method as in PMID 27429655; conditions: previous study; cited from earlier work
T1 construct: expressed in transfected cells; host or cells: CHO cells (membrane preparations)
T1 sequence (P21554 whole entry): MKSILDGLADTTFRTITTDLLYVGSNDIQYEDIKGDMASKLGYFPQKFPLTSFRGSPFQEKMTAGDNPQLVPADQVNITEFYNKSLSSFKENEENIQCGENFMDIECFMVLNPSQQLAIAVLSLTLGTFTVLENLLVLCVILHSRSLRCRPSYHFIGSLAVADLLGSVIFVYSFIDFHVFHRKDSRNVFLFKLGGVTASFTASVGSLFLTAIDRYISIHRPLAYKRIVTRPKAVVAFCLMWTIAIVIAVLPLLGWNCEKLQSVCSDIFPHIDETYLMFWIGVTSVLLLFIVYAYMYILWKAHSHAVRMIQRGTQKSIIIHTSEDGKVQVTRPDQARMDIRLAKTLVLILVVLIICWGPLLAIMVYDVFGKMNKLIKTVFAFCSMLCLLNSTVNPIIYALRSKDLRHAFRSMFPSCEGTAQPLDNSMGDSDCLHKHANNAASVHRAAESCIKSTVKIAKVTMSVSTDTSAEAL

[2] = target: T2, human GPR55 (Homo sapiens, UniProt Q9Y2T6); conditions: previous study; cited from earlier work
T2 construct: host or cells: CHO cells
T2 sequence (Q9Y2T6 whole entry): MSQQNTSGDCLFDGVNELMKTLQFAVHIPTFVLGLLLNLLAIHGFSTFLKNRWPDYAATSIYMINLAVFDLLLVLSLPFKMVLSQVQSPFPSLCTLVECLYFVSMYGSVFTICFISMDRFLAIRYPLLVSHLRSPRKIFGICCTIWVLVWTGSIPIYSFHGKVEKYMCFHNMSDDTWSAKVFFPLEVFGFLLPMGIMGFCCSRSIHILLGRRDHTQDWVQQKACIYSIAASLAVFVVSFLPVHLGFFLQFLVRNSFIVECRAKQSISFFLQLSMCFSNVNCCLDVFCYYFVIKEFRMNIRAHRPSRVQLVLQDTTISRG

[3] = target: T1, human CB1 receptor; experiment: biochemical; type: binding; conditions: [3H]CP55,940 0.1 nM, CHO cell membranes; read-out: Ki ± SEM Human CB1
[4] = target: T3, human CB2 receptor (Homo sapiens, UniProt P34972); experiment: biochemical; type: binding; conditions: [3H]CP55,940 0.1 nM, CHO cell membranes; read-out: Ki ± SEM Human CB2
T3 construct: expressed in transfected cells; host or cells: CHO cells (membrane preparations)
T3 sequence (P34972 whole entry): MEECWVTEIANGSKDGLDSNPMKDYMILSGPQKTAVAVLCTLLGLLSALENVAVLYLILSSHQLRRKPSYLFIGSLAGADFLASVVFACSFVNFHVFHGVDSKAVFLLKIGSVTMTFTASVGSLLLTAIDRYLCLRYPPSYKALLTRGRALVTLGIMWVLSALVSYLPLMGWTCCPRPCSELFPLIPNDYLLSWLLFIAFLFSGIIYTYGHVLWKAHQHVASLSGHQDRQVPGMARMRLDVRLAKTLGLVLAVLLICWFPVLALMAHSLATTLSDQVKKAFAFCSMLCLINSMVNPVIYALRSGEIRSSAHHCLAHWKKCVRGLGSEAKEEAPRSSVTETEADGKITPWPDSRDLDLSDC

[5] = target: T1, human CB1 receptor; experiment: cAMP accumulation assay, CHO cells stably expressing CB1; type: cell-based
Protocol: (§1) cAMP accumulation assays were performed also as previously described. Briefly, CHO cells stably expressing the respective human CB receptor subtype CB1 or CB2 were seeded overnight. […] After incubation for 15 min the buffer was removed, and the cells were lyzed. The amount of cAMP was determined in a radioligand binding assay by incubating 50 µL of the cell lysate with 3 nM [^3H]cAMP in the presence of protein preparations from bovine adrenal glands (cAMP binding protein). Bound and unbound radioligand were separated by rapid filtration through GF/B filters, and radioactivity was determined by liquid scintillation counting. To test for antagonistic activity, test compounds were added to Hank’s buffered salt solution (HBSS) containing 10% dimethyl sulfoxide (DMSO), 10 min after the application of Ro-20-1724, and the mixture was incubated for 20 min at 37 °C.
(§2) As a next step, we investigated the compounds in cAMP accumulation assays, to obtain information on their functionality (Fig. 3). CB receptors are Gi protein-coupled and thus reduce the levels of cAMP in the cells upon activation.

[6] = target: T3, human CB2 receptor; experiment: cAMP accumulation assay, CHO cells stably expressing CB2; type: cell-based
Protocol: as §1, §2

[7] = target: T2, human GPR55; experiment: β-Arrestin PathHunter assay, recombinant CHO cells expressing GPR55; type: cell-based; conditions: for Human GPR55 % inhibition: antagonist mode versus LPI 1 µM; for Human GPR55 % inhibition / Human GPR55 % activation: value in parentheses
[8] = target: T4, human GPR18 (Homo sapiens, UniProt Q14330); experiment: β-Arrestin PathHunter assay, recombinant CHO cells expressing GPR18; type: cell-based; conditions: for Human GPR18 % activation / Human GPR18 % inhibition: value in parentheses
T4 construct: host or cells: CHO cells
T4 sequence (Q14330 1-331): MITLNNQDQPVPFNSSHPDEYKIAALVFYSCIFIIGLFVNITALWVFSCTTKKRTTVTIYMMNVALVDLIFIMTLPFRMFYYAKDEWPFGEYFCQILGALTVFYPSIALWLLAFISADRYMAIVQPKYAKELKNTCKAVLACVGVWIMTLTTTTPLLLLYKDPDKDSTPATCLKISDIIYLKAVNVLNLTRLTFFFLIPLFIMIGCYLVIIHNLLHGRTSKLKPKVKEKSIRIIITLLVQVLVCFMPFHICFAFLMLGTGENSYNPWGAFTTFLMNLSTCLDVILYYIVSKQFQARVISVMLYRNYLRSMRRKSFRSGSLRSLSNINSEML

[9] = target: CB1 receptor; conditions: membrane potential assay, cited from earlier work
[10] = target: CB2 receptor; conditions: membrane potential assay, cited from earlier work
[11] = system: rats; parameters: method as in PMID 27421060; conditions: cited from earlier work
[12] = target: CB1 receptor; parameters: method as in Bowden et al. [43]; conditions: HTRF cAMP accumulation; ref Bowden et al. [43]; cited from earlier work
[13] = target: CB2 receptor; parameters: method as in Bowden et al. [43]; conditions: HTRF cAMP accumulation; ref Bowden et al. [43]; cited from earlier work
[14] = target: CB1 receptor; parameters: method as in Wiley et al. [41]; conditions: versus 0.62 nM [3H]CP55,940; ref Wiley et al. [41]; cited from earlier work
[15] = target: CB2 receptor; parameters: method as in Wiley et al. [41]; conditions: versus 0.62 nM [3H]CP55,940; ref Wiley et al. [41]; cited from earlier work
[16] = parameters: method as in Wiley et al. [41]; conditions: receptor subtype not stated; ref Wiley et al. [41]; read-out: EC50 in [35S]GTPγS assays; cited from earlier work
[17] = compound at 10 µM, normalized to CP55,940 (1 µM)

| SMILES | Ki [3] [nM] | Ki [4] [nM] | EC50 [7] [nM] | IC50 [7] [nM] | Human GPR55 % inhibition [7] [%] | EC50 [8] [nM] | IC50 [8] [nM] | Human GPR18 % activation ([8]; agonist mode) [%] | Human GPR18 % inhibition ([8]; antagonist mode) [%] | Human GPR55 % activation ([7]; agonist mode) [%] | also measured |
| --- | --- | --- | --- | --- | --- | --- | --- | --- | --- | --- | --- |
| O=C(Oc1cccc2cccnc12)c1cn(CC2CCCCC2)c2ccccc12 [BB-22] | – | – | – | – | – | – | – | – | – | – | Ki [1]: 0.217 nM |
| CCc1ccc(C(=O)c2cn(CCCCCF)c3ccccc23)c2ccccc12 [EAM-2201] | – | – | – | – | – | – | – | – | – | – | IC50 [2]: 1860 nM |
| COC(=O)[C@@H](NC(=O)c1nn(Cc2ccc(F)cc2)c2ccccc12)C(C)(C)C [compound 12, MDMB-FUBINACA] | 0.0985 ± 0.0291 | 0.13 ± 0.01 | > 10000 | > 10000 | 30 | > 10000 | > 10000 | 18 | 31 | – | EC50 [5]: 0.0641 nM; EC50 [6]: 0.756 nM; EC50 ([9]; ref Banister et al. [38]): 3.9 nM; EC50 ([10]; ref Banister et al. [38]): 55 nM; hypothermal response [11]: highest hypothermal response |
| CC(C)(NC(=O)c1cn(CCCCCF)c2ccccc12)c1ccccc1 [compound 32, 5F-Cumyl-PICA] | 1.37 ± 0.26 | 29.1 ± 2.4 | > 10000 | > 10000 | – | > 10000 | > 10000 | 16 | – | 14 | EC50 ([9]; ref Longworth et al. [51]): 2.8 nM; EC50 ([10]; ref Longworth et al. [51]): 39.6 nM; EC50 [12]: < 0.1 nM; EC50 [13]: 0.37 nM |
| O=C(c1cccc2ccccc12)c1nc2ccccc2n1CCCCCF [compound 42, FUBIMINA] | 502 ± 181 | 99 ± 28.4 | – | – | 44 | – | – | 42 | 14 | 16 | CB1 receptor activation in cAMP accumulation assay (in words) [5, 17]: partial activation; CB2 receptor activation in cAMP accumulation assay (in words) [6, 17]: partial activation; EC50 ([7]; agonist mode, read-out: Human GPR55 EC50): > 10000 nM; IC50 ([7]; antagonist mode versus lysophosphatidylinositol (LPI, 1 µM), read-out: Human GPR55 IC50): > 10000 nM; EC50 ([8]; agonist mode, read-out: Human GPR18 EC50): > 10000 nM; IC50 ([8]; antagonist mode, read-out: Human GPR18 IC50): > 10000 nM; Ki [14]: 296 nM; Ki [15]: 23.5 nM; EC50 [16]: 2470 nM |
